According to patent publication US20240208997A1, “CYCLIC BENZIMIDAZOLE DERIVATIVES AS CGAS INHIBITORS” (Boehringer Ingelheim International GmbH, priority 2022, published 2024):

Tested on: IFN induction in dsDNA-stimulated human whole blood
Test: Human whole blood assay (hWB IC50), dsDNA stimulated, IFNα2α production
Format: cell-based
Conditions: Table 1
Description: 6.3 Method: Human Whole Blood Assay (Human WB IC50)
For the detection of cellular cGAS activity human whole blood was stimulated by transfection with double stranded DNA. Pathway activity was monitored by measuring the IFNα2α production.
Compounds were delivered as 10 mM DMSO solution and serially diluted and transferred to the 96-well cell culture plate (Corning #3595), prefilled with 20 μl OptiMEM (Gibco, #11058-021) in each well, using an Echo acoustic dispenser. Typically, 8 concentrations were used with the highest concentration at 10 μM in the final assay volume followed by ^˜1:5 dilution steps. DMSO concentration was set to 0.1% in the final assay volume. The 96-well assay plate contained 10 test compounds, and DMSO in control wells.
Collection of human whole blood from 3 or more healthy donors (male or female, no medication for 7 days except contraceptive and thyroxine) as Na-Citrate blood (e.g. 3.8% in Monovettes from Sarstedt) was conducted in parallel. Whole blood was kept at room temperature for a maximum of 3 hours after collection until use in the assay. 160 μl of the whole blood samples was transferred to each well of the 96-well assay plates filled with compound/OptiMEM. All assay plates were prepared as duplicates with blood from different donors. Blood plates were kept at room temperature for 60 minutes and continuous shaking with 450 rpm, covered with the lid, but not sealed.
20 μl OptiMEM and 9.6:1 Fugene was added to all low control wells.
After covering assay plates with aera seals and the lid, blood plates were kept at room temperature for 30 minutes and continuous shaking with 450 rpm, followed by an overnight incubation of 22 h at 37° C. in the incubator, without shaking.
For the detection of IFNα-2α in human plasma, the biotinylated capture antibody (Antibody set IFNA2, Meso Scale Diagnostics #B21VH-3, including coating and capture antibody) was diluted 1:17.5 in Diluent 100 (Meso Scale Diagnostics #R50AA-4), according to the manufacturer's directions. U-Plex MSD GOLD 96-well Small Spot Strepavidin SECTOR Plates (Meso Scale Diagnostics #L45SA-5) were coated with 25 μl diluted capture antibody. Coated plates were incubated for 60 min at room temperature under continuous shaking at 700 rpm. MSD IFNα-2α plates were washed three times with 150 μl wash buffer (1× HBSS, 0.05% Tween).
After blocking the plates with 100 μl block solution/well (1× HBSS with 0.2% Tween, 2% BSA) for 60 min at room temperature and continuous shaking at 700 rpm, plates were emptied as dry as possible by dumping just before continuing with the human plasma.
Whole Blood assay plates were centrifuged at 1600 rpm for 10 minutes. 25 μl of supernatant was transferred with a pipetting robot from each whole blood plate to the corresponding IFNα-2α plate. Plates were sealed with microplate seals and kept at room temperature again under continuous shaking at 700 rpm for two hours.
Next MSD IFNα-2α plates were washed three times with 150 μl wash buffer (1× HBSS, 0.05% Tween), before adding 25 μl MSD SULFO-TAG IFNα-2α Antibody solution (1:100 diluted in Diluent 3 (Meso Scale Diagnostics #R50AP-2) to each well of the plates.
Afterwards plates were sealed with microplate seals and kept at room temperature again under continuous shaking at 700 rpm for two hours. Finally, MSD IFNα-2α plates were washed three times with 150 μl wash buffer (1× HBSS, 0.05% Tween). 150 μl 2× Read buffer was added to each well and plates were immediately measured with the MSD Sector S600 Reader using the vendor barcode.
Data Evaluation and Calculation:
For data evaluation and calculation, % control calculation of each well was based on the mean of high (DNA stimulated control) and mean of low (unstimulated control) controls by using the following formula:
[counts(sample)−counts(low))/(counts(high)−counts(low))]*100
The IC50-values were calculated using the standard 4 parameter logistic regression formula. […]

Row | Compound | IC50
1 | C[C@H]1CN2CC[C@@H]1n1c(nc3ccccc31)O[C@H]1C[C@@H](C(=O)O)N(C1)c1nc(nc3c1oc1cc(Cl)ccc13)C(F)(F)CCCOCC2=O [Example 1.22] | 0.004 µM
2 | O=C(O)[C@@H]1C[C@H]2CN1c1nc(nc3c1oc1ccccc13)COCCCCCC(=O)N1CCC(CC1)n1c(nc3cccc(F)c31)O2 [Example 5.01] | 0.033 µM
3 | O=C(O)[C@@H]1C[C@H]2CN1c1nc(nc3c1oc1ccccc13)OCCCCOC(=O)N1CCC(CC1)n1c(nc3ccccc31)O2 [Example 11.01] | 0.138 µM
4 | C[C@H]1CN2CC[C@@H]1n1c(nc3cc(Cl)ccc31)O[C@H]1C[C@@H](C(=O)O)N(C1)c1nc(nc3c1oc1ccccc13)CCOCCCC2=O [Example 1.02] | 0.005 µM
5 | O=C(O)[C@@H]1C[C@H]2CN1c1nc(nc3c1oc1ccccc13)COCCCC(F)(F)C(=O)N1CCC(CC1)n1c(nc3ccccc31)O2 [Example 8.01] | 0.035 µM
6 | C[C@H]1CN2CC[C@@H]1n1c(nc3ccccc31)O[C@H]1C[C@@H](C(=O)O)N(C1)c1nc(nc3c1oc1ccccc13)CCOCCCC2=O [Example 1.05] | 0.005 µM
7 | Cc1cccc2c1nc1n2[C@H]2CCN(C[C@@H]2C)C(=O)CCCCCC(F)(F)c2nc(c3oc4ccccc4c3n2)N2C[C@H](C[C@H]2C(=O)O)O1 [Example 1.28] | 0.028 µM
8 | C[C@@H]1CCCCC(=O)N2CCC(CC2)n2c(nc3ccccc32)O[C@H]2C[C@@H](C(=O)O)N(C2)c2nc1nc1c2oc2ccccc21 [Example 1.26] | 0.019 µM
9 | C[C@H]1CCCCC(=O)N2CCC(CC2)n2c(nc3ccccc32)O[C@H]2C[C@@H](C(=O)O)N(C2)c2nc1nc1c2oc2ccccc21 [Example 1.25] | 0.041 µM
10 | C[C@@H]1CN2CC[C@H]1n1c(nc3cc(Cl)ccc31)O[C@H]1C[C@@H](C(=O)O)N(C1)c1nc(nc3c1oc1ccccc13)CCOCCCC2=O [Example 1.01] | 0.087 µM
11 | C[C@H]1CN2CC[C@@H]1n1c(nc3ccccc31)O[C@H]1C[C@@H](C(=O)O)N(C1)c1nc(nc3c1oc1ccccc13)C(F)(F)COCCCC2=O [Example 4.01] | 0.001 µM
12 | C[C@H]1CN2CC[C@@H]1n1c(nc3ccccc31)O[C@H]1C[C@@H](C(=O)O)N(C1)c1nc(nc3c1oc1ccccc13)C(F)(F)CCCCC(F)(F)C2=O [Example 1.17] | 0.008 µM
13 | C[C@@H]1CC(=O)N2CCC(CC2)n2c(nc3ccccc32)O[C@H]2C[C@@H](C(=O)O)N(C2)c2nc(nc3c2oc2ccccc23)CCCO1 [Example 7.01] | 0.101 µM
14 | CC1CCc2nc(c3oc4ccccc4c3n2)N2C[C@H](C[C@H]2C(=O)O)Oc2nc3cc(Cl)ccc3n2[C@H]2CCN(C[C@@H]2C)C(=O)CCO1 (stereo partly drawn) [Example 1.20] | 0.007 µM
15 | C[C@H]1CN2CC[C@@H]1n1c(nc3cc(Cl)ccc31)O[C@H]1C[C@@H](C(=O)O)N(C1)c1nc(nc3c1oc1ccccc13)COCCOCC2=O [Example 1.11] | 0.003 µM
16 | C[C@H]1CN2CC[C@@H]1n1c(nc3cc(F)ccc31)O[C@H]1C[C@@H](C(=O)O)N(C1)c1nc(nc3c1oc1ccccc13)C(F)(F)CCCCC(F)(F)C2=O [Example 1.18] | 0.01 µM
17 | C[C@H]1CN2CC[C@@H]1n1c(nc3ccccc31)O[C@H]1C[C@@H](C(=O)O)N(C1)c1nc(nc3c1oc1ccccc13)CCCC(C)(C)CCC2=O [Example 1.23] | 0.143 µM
18 | C[C@H]1CN2CC[C@@H]1n1c(nc3ccc(Cl)cc31)O[C@H]1C[C@@H](C(=O)O)N(C1)c1nc(nc3c1oc1ccccc13)C(F)(F)CCCCCC2=O [Example 1.13] | 0.015 µM
19 | C[C@H]1CN2CC[C@@H]1n1c(nc3ccccc31)O[C@H]1C[C@@H](C(=O)O)N(C1)c1nc(nc3c1oc1ccccc13)CCOCCOC2=O (mixture of isomers) [Example 12.01] | 0.225 µM
20 | O=C(O)[C@@H]1C[C@H]2CN1c1nc(nc3c1oc1ccccc13)CCCOCC(=O)N1CCC(CC1)n1c(nc3ccccc31)O2 [Example 9.01] | 0.041 µM

Row | Compound | IC50
21 | C[C@H]1CN2CC[C@@H]1n1c(nc3cc(Cl)ccc31)O[C@H]1C[C@@H](C(=O)O)N(C1)c1nc(nc3c1oc1ccccc13)C(F)(F)OCCCCC2=O [Example 6.01] | 0.003 µM
22 | C[C@@H]1CN2CC[C@H]1n1c(nc3ccccc31)O[C@H]1C[C@@H](C(=O)O)N(C1)c1nc(nc3c1oc1ccccc13)CCCCCOC2=O [Example 10.01] | 0.439 µM
23 | C[C@H]1CN2CC[C@@H]1n1c(nc3cc(Cl)ccc31)O[C@H]1C[C@@H](C(=O)O)N(C1)c1nc(nc3c1oc1cc(F)ccc13)CCCCOCC2=O [Example 1.09] | 0.002 µM
24 | C[C@H]1CN2CC[C@@H]1n1c(nc3ccccc31)O[C@H]1C[C@@H](C(=O)O)N(C1)c1nc(nc3c1oc1ccccc13)CCCCCOC2=O [Example 10.02] | 0.083 µM
25 | C[C@H]1CN2CC[C@@H]1n1c(nc3ccccc31)O[C@H]1C[C@@H](C(=O)O)N(C1)c1nc(nc3c1oc1ccccc13)CCCCCC2=O [Example 1.19] | 0.018 µM
26 | C[C@H]1CN2CC[C@@H]1n1c(nc3ccccc31)O[C@H]1C[C@@H](C(=O)O)N(C1)c1nc(nc3c1oc1cc(Cl)ccc13)C(F)(F)CCCCCC2=O [Example 1.16] | 0.01 µM
27 | Cc1cccc2c1nc1n2[C@@H]2CCN(C[C@H]2C)C(=O)CCCCCC(F)(F)c2nc(c3oc4ccccc4c3n2)N2C[C@H](C[C@H]2C(=O)O)O1 [Example 1.27] | 1.58 µM
28 | C[C@H]1CN2CC[C@@H]1n1c(nc3ccccc31)O[C@H]1C[C@@H](C(=O)O)N(C1)c1nc(nc3c1oc1ccccc13)CCCCCN(C)C2=O [Example 13.01] | 0.186 µM
29 | C[C@H]1CN2CC[C@@H]1n1c(nc3cc(Cl)ccc31)O[C@H]1C[C@@H](C(=O)O)N(C1)c1nc(nc3c1oc1cc(Cl)ccc13)CCOCCCC2=O [Example 1.08] | 0.017 µM
30 | O=C(O)[C@@H]1C[C@H]2CN1c1nc(nc3c1oc1ccccc13)CCOCCCC(=O)N1CCC(CC1)n1c(nc3cc(F)ccc31)O2 [Example 1.03] | 0.036 µM
31 | C[C@H]1CN2CC[C@@H]1n1c(nc3ccccc31)O[C@H]1C[C@@H](C(=O)O)N(C1)c1nc(nc3c1oc1cc(Cl)ccc13)CCOCCCC2=O [Example 1.07] | 0.013 µM
32 | C[C@H]1CN2CC[C@@H]1n1c(nc3ccc(Cl)cc31)O[C@H]1C[C@@H](C(=O)O)N(C1)c1nc(nc3c1oc1ccccc13)CCOCCCC2=O [Example 1.06] | 0.015 µM
33 | C[C@H]1CN2CC[C@@H]1n1c(nc3cc(Cl)ccc31)O[C@H]1C[C@@H](C(=O)O)N(C1)c1nc(nc3c1oc1ccccc13)C(F)(F)CCCCCC2=O [Example 1.12] | 0.005 µM
34 | C[C@H]1CN2CC[C@@H]1n1c(nc3ccc(Cl)cc31)O[C@H]1C[C@@H](C(=O)O)N(C1)c1nc(nc3c1oc1ccccc13)COCCCCC2=O [Example 1.10] | 0.012 µM
35 | C[C@H]1CN2CC[C@@H]1n1c(nc3ccccc31)O[C@H]1C[C@@H](C(=O)O)N(C1)c1nc(nc3c1oc1ccccc13)C(F)(F)COCCCCC2=O [Example 3.01] | 0.001 µM
36 | C[C@H]1CN2CC[C@@H]1n1c(nc3cc(F)ccc31)O[C@H]1C[C@@H](C(=O)O)N(C1)c1nc(nc3c1oc1cc(F)ccc13)C(F)(F)CCCCCC2=O [Example 1.15] | 0.003 µM
37 | O=C(O)[C@@H]1C[C@H]2CN1c1nc(nc3c1oc1ccccc13)CCOCCCC(=O)N1CCC(CC1)n1c(nc3ccc(F)cc31)O2 [Example 1.04] | 0.044 µM
38 | C[C@H]1CN2CC[C@@H]1n1c(nc3cc(Cl)ccc31)O[C@H]1C[C@@H](C(=O)O)N(C1)c1nc(nc3c1oc1ccccc13)C(F)(F)CCCOCC2=O [Example 1.21] | 0.001 µM
39 | C[C@H]1CN2CC[C@@H]1n1c(nc3cccc(Cl)c31)O[C@H]1C[C@@H](C(=O)O)N(C1)c1nc(nc3c1oc1ccccc13)CC(=O)NCCCC2=O (racemic) [Example 2.01, (12S,14S)-4-chloro-37-methyl-29,34-dioxo-11,18-dioxa-2,9,15,26,30,35,40-heptaazaoctacyclo[33.2.2.1^12,15.1^16,27.0^2,10.0^3,8.0^17,25.0^19,24]hentetraconta-3,5,7,9,16(40),17(25),19(24),20,22,26-decaene-14-carboxylic acid] | 0.035 µM
